The values that follow come from patent publication US10597378B2 (priority 2017, dated 2020).

The target in series [1] is T1, MOR (Homo sapiens, UniProt P35372). The series is classed as cell-based. Also noted: host or cells: CHO-K1 (CHO-K1-MOR).
The test system of series [2] is mice. Description: Conditioned place preference (CPP) test, reinstatement of morphine CPP. Particulars: challenge on reinstatement day (Day 21).
The nature of series [3]: Charcoal meal test (gastrointestinal transit). The conditions noted are these: B6, mouse, in vivo, sc. The procedure: (§1) B6 mice were fasted for at least 16 h before the study with free access to water. In a charcoal meal test, various doses of drugs were administered to the mice 30 min prior to the administration of an aqueous activated charcoal suspension (10% activated charcoal+5% gum Arabic; 0.3 mL). After 30 min, the mice were euthanized by intraperitoneal administration of a ketamine/xylazine cocktail (Sigma) followed by cervical dislocation and the total length of migration of the charcoal meal was measured from the pylorus to the ileocecal junction of the small intestine. The length of the intestine from pylorus to the caecum and the distance traveled by the charcoal were measured. The migration index was expressed as percentage of the distance traveled by the peristaltic charcoal meal relative to the total length of the small intestine, calculated according to the following formula. % of Gastrointestinal transit=Distance Travelled by Charcoal Meal/Full Length of the Small Intestine×100%
(§2) Gastrointestinal propulsion was calculated as the percentage of the distance travelled by the charcoal meal relative to the total length of the small intestine, to control for individual variations. The percentage inhibition relative to the control was also calculated as: % Gastrointestinal Inhibition (GI)=(Control group−Drug-treated group)/Control group×100% […]

A further series concerns B6 mice. The experiment in a line: Charcoal meal test (gastrointestinal transit). Particulars: equianalgesic doses. The procedure: as §1, §2
The target of series [4] is T1, MOR. Description: cell-based. Also noted: host or cells: CHO-K1 (CHO-K1-MOR). The procedure: The PathHunter G protein-coupled receptor β-arrestin-2 assay (DiscoveRx) was performed according to the manufacturer's protocol. Briefly, when β-arrestin-2 translocates to the active receptor, complementary β-galactosidase fragments fused to the receptor and β-arrestin-2 interact to form a functional enzyme, which can be detected by chemiluminescence.
Cells (5,000 per well) were then seeded in black 384-well assay plates with a CP2 reagent (DiscoveRx) and incubated for 24 h before running the assay. After each treatment, cells were incubated at room temperature for 1.5 h, followed by the addition of 8 μl of the PathHunter Detection reagent (DiscoveRx) and incubated for 1 h. Luminescence was detected using a Victor 2 plate reader. Studies were performed on the same day and the same passage of cells was used to ensure accurate comparisons of data.
Opioid receptors have been reported to couple to G protein-independent β-arrestin-2-mediated pathways. […] The potency of the above three molecules in a β-arrestin-2 recruitment assay (PathHunter), which was based on enzyme complementation in Chinese hamster ovary (CHO)-K1 cells expressing human MOR (CHO-K1-MOR), was further examined.

Series [5] deals with mice. The experiment in a line: Tolerance and cross-tolerance, tail-flick test after 5 days twice-daily treatment. Particulars: day 6, equianalgesic dose. The series is classed as in vivo, mouse. (In general: In hot-plate and tail-flick tests a longer latency is read as antinociception.)
Series [6] concerns melanoma cell-implanted B6 mice. Description: Cancer-induced pain (B16-F1 melanoma), mechanical allodynia (Von Frey test). The series is classed as in vivo, mouse. The procedure:
To induce neuropathic pain, each B6 mouse was intraperitoneally injected with either oxaliplatin (3.0 mg/kg), or vehicle (saline) after habituation to the test environment and baseline measurements of pain sensitivity. […] To induce cancer pain, each B6 mouse was injected with either 20 μL phosphate-buffered saline or cells (6×10^5 cells/20 μL phosphate-buffered saline) in the footpad of the right hind paw under isoflurane anesthesia on post-inoculation day 0. […] […] The tests were initiated with 0.5 g force. Briefly, whenever a withdrawal response occurred, the next weaker von Frey filament was applied. On the other hand, whenever no withdrawal response occurred, the next stronger filament was applied. Mechanical allodynia was defined as changes in the amount of pressure to induce the hind paw withdrawal.
The cold allodynia was tested using acetone drop test and mechanical allodynia was measured using the Von Frey test to examine the antinociceptive effects of each drug treatment.

T1 sequence (P35372 whole entry): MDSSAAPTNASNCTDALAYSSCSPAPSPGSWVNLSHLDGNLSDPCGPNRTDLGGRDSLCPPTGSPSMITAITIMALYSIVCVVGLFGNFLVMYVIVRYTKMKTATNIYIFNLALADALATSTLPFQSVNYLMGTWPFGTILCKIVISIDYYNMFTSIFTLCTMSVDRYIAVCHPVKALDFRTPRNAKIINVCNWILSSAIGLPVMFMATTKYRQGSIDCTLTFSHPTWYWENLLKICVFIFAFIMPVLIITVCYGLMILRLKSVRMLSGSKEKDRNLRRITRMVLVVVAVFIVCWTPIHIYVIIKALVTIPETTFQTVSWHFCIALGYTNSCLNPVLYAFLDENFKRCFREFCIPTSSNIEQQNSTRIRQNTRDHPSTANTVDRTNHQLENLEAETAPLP

By ED50 is commonly meant the dose that gives a 50% effect, or the effect in half of the subjects. A low value points to an effect at a small dose. For orientation: EC50 means the concentration at which the effect is half-maximal. Low values mean higher potency in that assay, high ones lower potency in that assay. `CN1CCc2ccccc2C1CNC(=O)c1ccc(Cl)c(Cl)c1` (stereo not shown) [Compound 67, 3,4-Dichloro-N-[(2-methyl-1,2,3,4-tetrahydro-1-isoquinolinyl)methyl]benzamide]: the MOR internalization result at MOR [1] was “approximately two-fold that of the maximal responses of morphine”. In the series on mice [2], the “reinstatement of morphine CPP” value was “not Compound 67”. In series [3], this compound came in with an ED50 at 60 min of 1.6 mg/kg. Also, the gastrointestinal dysfunction result with B6 mice was “less gastrointestinal dysfunction than morphine”. In addition, at MOR [4], the 50% effective concentration (EC50) stood at 1900 nM; the “Emax of β-arrestin recruitment relative to morphine” value is 3 fold; the “β-arrestin recruitment, comparison” value is given as “more β-arrestin recruitment than that in morphine but induced less β-arrestin recruitment than Met-5”. In addition, the “antinociceptive effects on challenge in morphine-tolerant mice” value in the series on mice [5] is given as “significant increase in antinociceptive effects”. In series [6] (30 min on PID 21 and PID 23), the “antinociceptive effect after twice daily injection” value is listed as “more than that of morphine”. Further, the withdrawal threshold entry in series [6] (PID19, 30 min after treatment, equi-antinociceptive doses) is reported as “greater than that of morphine”.
